The numbers were not newly measured in US5879680A, “Cloned DNA for synthesizing unique glucocerebrosidase” (The United States of America as represented by the …, priority 1995, dated 1999), which cites them from elsewhere.

In the data set the target is human placental glucocerebrosidase (Homo sapiens, UniProt P04062). The settings on record: placental enzyme, reported by Basu et al, J.B.C. 259:1714, 1984.
human placental glucocerebrosidase, sequence (P04062 40-536): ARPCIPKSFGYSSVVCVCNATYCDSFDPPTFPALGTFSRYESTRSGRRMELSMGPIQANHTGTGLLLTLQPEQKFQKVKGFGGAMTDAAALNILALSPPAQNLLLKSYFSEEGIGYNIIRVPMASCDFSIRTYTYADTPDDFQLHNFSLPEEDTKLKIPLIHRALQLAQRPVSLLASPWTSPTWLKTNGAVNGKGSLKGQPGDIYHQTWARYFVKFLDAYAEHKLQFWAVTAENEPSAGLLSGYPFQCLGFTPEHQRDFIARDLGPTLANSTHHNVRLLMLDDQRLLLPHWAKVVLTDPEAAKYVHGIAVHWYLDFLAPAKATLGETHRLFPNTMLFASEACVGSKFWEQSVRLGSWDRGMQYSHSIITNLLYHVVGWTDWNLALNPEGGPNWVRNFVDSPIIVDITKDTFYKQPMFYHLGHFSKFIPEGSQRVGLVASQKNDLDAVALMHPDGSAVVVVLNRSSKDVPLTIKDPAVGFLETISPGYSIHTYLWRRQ

A word on the Km: it is the concentration of substrate that gives half-maximal velocity. Take `Cc1cc(=O)oc2cc(O[C@@H]3O[C@H](CO)[C@@H](O)[C@H](O)[C@H]3O)ccc12` [4MUGP, 4-methylumbellifery-β-D-glucopyranoside]: the Km was 8 mM.
